Laboratory results as given in US9402856B2, “Pharmaceutical composition for preventing or treating diabetes containing TENC1 expression or activity suppressor” (POSTECH ACADEMY-INDUSTRY FOUNDATION, priority 2012, dated 2016).
Residues, ends and D or L forms follow the SMILES beside them. *: point of attachment. Cbz = O=C(OCc1ccccc1)*

Key:
[1] = biological target: T1, TENC1 (Homo sapiens, UniProt Q63HR2, P1246L); test: degradation of IRS-1 protein in myotube overexpressing TENC1, Western blotting; assay type: cell-based; design: expressed in transfected cells; host or cells: L6 myotube (adenoviral overexpression)
T1 sequence (Q63HR2 1-1409 P1246L): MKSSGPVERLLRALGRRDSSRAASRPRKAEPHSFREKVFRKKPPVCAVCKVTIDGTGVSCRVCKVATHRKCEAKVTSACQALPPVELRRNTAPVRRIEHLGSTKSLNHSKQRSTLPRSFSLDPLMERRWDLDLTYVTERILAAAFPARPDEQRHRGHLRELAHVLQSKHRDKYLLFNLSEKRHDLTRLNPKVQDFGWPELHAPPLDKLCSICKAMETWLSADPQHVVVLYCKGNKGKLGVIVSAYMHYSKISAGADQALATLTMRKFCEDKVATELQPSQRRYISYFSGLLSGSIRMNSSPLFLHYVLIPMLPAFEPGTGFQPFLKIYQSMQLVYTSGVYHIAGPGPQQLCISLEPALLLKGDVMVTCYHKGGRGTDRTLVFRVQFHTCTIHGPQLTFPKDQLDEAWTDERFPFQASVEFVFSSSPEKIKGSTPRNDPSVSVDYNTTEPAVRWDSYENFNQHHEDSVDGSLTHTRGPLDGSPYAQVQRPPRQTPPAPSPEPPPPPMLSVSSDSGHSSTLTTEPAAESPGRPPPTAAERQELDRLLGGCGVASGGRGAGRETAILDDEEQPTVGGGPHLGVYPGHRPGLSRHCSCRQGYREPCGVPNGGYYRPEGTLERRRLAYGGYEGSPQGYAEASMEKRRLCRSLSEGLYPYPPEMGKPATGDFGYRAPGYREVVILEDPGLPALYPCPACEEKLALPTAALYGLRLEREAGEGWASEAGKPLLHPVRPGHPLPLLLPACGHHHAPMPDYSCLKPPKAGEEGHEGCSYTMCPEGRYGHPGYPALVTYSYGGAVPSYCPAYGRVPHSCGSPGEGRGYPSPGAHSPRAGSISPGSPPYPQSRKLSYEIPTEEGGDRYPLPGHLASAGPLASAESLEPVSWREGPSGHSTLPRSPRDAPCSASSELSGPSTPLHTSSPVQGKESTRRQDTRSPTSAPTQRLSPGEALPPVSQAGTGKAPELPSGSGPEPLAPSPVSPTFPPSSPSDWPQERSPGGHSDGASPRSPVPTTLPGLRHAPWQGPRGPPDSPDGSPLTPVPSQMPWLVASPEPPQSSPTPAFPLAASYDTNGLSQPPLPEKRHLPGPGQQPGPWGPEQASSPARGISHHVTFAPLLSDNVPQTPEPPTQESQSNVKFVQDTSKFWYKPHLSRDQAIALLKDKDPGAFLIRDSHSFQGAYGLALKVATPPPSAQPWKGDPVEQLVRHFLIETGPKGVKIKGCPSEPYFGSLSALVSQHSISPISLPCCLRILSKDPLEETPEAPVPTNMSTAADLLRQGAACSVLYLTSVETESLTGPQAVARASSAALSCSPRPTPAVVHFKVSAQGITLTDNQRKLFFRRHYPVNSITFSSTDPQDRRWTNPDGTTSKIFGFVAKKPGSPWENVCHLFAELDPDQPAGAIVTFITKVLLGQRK
Method: In order to know a physiological function of TENC1, TENC1 was overexpressed in L6 myotube (muscle cell) that plays a main role in IRS-1, using an adenovirus. Using the same method as in Example 1, the quantitative PCR was performed and it was confirmed that TENC1 mRNA was increased eightfold to tenfold in the myotube. Then, using the same method as in Example 2, phosphorylation of proteins associated with IRS-1 was determined.
Accordingly, in order to determine the reason for the decrease of IRS-1, it was determined whether TENC1 influences a ubiquitin proteasome pathway or serine phosphorylation of IRS-1 by Western blotting. In order to determine whether TENC1 influences a protein-degrading mechanism, MG132, which is an inhibitor of a protein-degrading enzyme (proteasome), was treated.
In order to determine whether the PTPase activity of TENC1 influences degradation of IRS-1, vanadate was treated to determine whether degradation of IRS-1 is suppressed by Western blotting.

[2] = biological target: T1, TENC1; test: PTPase activity of separated TENC1, malachite green assay; assay type: biochemical; design: expressed in transfected cells; conditions: separated TENC1 proteins, FIG. 16A
Method: In addition, in order to measure the PTPase activity of TENC1, first, TENC1 was separated from HEK293 cell lines using a Flag immunoprecipitation/Flag peptide elution system. Then, the PTPase activity of the separated TENC1 was measured over time, using peptides having phosphotyrosine. The PTPase activity was analyzed by a malachite green assay method. As a control group, PTEN (a phosphatase and tensin homolog) or the TENC1 CS variant was used.
As a result, it was confirmed that the PTPase activity of TENC1 was inhibited by 60% or more (FIG. 16A).

[3] = biological target: T2, PTPase domain of TENC1 (Homo sapiens, UniProt Q63HR2, P1246L); test: binding of TENC1 and IRS-1, immunoprecipitation using IRS-1; conditions: FIG. 5
T2 construct: expressed in transfected cells
T2 sequence (Q63HR2 1-1409 P1246L): T1 sequence (Q63HR2 1-1409 P1246L)
Method: In order to determine a mechanism of TENC1 that suppresses phosphorylation of IRS-1, immunoprecipitation was performed using IRS-1. In a control experiment, vanadate, which is an analogue of phosphotyrosine and binds to a PTPase domain to inhibit the PTPase activity, was used.

Structure (SMILES): CC(C)C[C@@H](C=O)NC(=O)[C@H](CC(C)C)NC(=O)[C@H](CC(C)C)NC(=O)OCc1ccccc1 [MG132] (Cbz-Leu-Leu-Leu-aldehyde)
- amount of IRS-1 ([1]; with and without insulin, TENC1 overexpressed, FIG. 9): the decreased amount of IRS-1 was restored

Structure (SMILES): C[C@H]1[C@H](C)CC[C@]2(C(=O)O)CC[C@]3(C)C(=CC[C@@H]4[C@@]5(C)CC[C@H](O)C(C)(C)[C@@H]5CC[C@]43C)[C@H]12 [ursolic acid]
- degree of degradation of IRS-1 protein ([1]; myotube overexpressing TENC1, increasing concentration, FIG. 16C): IRS-1 is restored to a level similar to a control group
- inhibition at 20 µM [2]: ≥ 60%

Structure (SMILES): [O]=[V]([O-])([O-])[O-] [vanadate]
- binding of TENC1 WT with IRS-1 [3]: binding with IRS-1 decreased
- degradation of IRS-1 ([1]; vanadate treated, Western blotting, FIG. 10): degradation of IRS-1 was suppressed
